We go through 6 molecules from publication PMC10003107, “Selectivity of Hydroxamate- and Difluoromethyloxadiazole-Based Inhibitors of Histone Deacetylase 6 In Vitro and in Cells” (International Journal of Molecular Sciences, 2023).

Data set [1] can be described thus: MTT viability assay. It counts as cell-based. Conditions: human, RPMI-8226 lymphoblasts, RPMI-8226 cells, read-out: EC50 cytotoxicity (MTT viability). As for the experimental part:
(§1) RPMI-8226 lymphoblasts (ATTC #CCL-155) were used to assess the cytotoxicity of tested compounds. […] Dilution series of tested inhibitors were prepared as 10x stock solutions in PBS and 10 μL was added to cells and incubated under a 5% CO2 atmosphere at 37 °C, for 2 days. Following incubation, 10 μL of MTT reagent (3-(4,5-dimethylthiazol-2-yl)-2,5-diphenyltetrazolium bromide, 5 mg/mL in PBS, Sigma Aldrich) was added to each well and incubated for 90 min, 37 °C, 5% CO2. […]
On the technique in general: Tetrazolium dyes change colour on reduction, which living cells bring about.

Data set [2] concerns RPMI-8226 lymphoblasts. Put plainly: MTT viability assay. Format: cell-based. Conditions: RPMI-8226 cells, 48 h; for EC50: read-out: EC50 cytotoxicity (MTT viability). As for the experimental part:
as §1

Data set [3] deals with tubulin acetylation. Description: Tubulin acetylation in RPMI-8226 cells by quantitative Western blotting. Format: cell-based. (In general: Immunoblotting shows a protein as a band on a membrane.)
Data set [4] has as its system histone H3 acetylation. Description: Histone H3 (K9/K14) acetylation in RPMI-8226 cells by Western blotting. Conditions: 6 h, Western blot. It counts as cell-based.
The target of data set [5] is T1, HDAC10 (Homo sapiens, UniProt Q969S8).
T1 construct: HDAC10 1 – 667 Open Biosystems; Strep-FLAG-HALO (N); made in house; host or cells: HEK293/T17
T1 sequence (Q969S8 1-667): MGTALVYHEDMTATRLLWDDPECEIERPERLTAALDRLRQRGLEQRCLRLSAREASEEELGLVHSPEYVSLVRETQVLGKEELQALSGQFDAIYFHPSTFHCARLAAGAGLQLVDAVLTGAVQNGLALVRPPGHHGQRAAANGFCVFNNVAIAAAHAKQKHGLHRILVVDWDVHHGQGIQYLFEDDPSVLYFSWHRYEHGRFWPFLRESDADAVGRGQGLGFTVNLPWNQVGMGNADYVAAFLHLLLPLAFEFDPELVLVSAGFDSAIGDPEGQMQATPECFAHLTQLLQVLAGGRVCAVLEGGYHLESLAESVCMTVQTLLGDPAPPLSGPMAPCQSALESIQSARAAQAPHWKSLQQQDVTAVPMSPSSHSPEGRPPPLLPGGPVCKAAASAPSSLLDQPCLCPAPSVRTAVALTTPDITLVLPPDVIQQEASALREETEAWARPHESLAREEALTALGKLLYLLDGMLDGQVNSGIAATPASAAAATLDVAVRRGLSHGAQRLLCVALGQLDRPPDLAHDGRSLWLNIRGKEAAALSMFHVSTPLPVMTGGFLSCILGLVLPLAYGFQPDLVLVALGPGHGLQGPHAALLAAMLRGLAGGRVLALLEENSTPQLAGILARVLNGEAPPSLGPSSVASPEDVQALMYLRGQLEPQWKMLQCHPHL
Put plainly: In vitro deacetylation assay, HDAC10 (fluorescein-labeled N8-acetylspermidine, RP-HPLC). It counts as biochemical.

Data set [6] concerns the target T2, HDAC1 (Homo sapiens, UniProt Q13547).
T2 construct: HDAC1 1-482 Addgene; Strep-FLAG-HALO (N); made in house; host or cells: HEK293/T17
Put plainly: In vitro deacetylation assay, HDAC1 (RHKK substrate). It counts as biochemical. Conditions: for IC50: purified human HDAC1, RHK[AcK]-AMC (RHKK) substrate.

Data set [7] deals with T2, HDAC1. Put plainly: In vitro deacetylation assay, HDAC1 (GAK substrate). It counts as biochemical. Conditions: for IC50: purified human HDAC1, GAK substrate 10 µM.
The target in data set [8] is HDAC1-nanoLuc (Homo sapiens, UniProt Q13547). Put plainly: nanoBRET target engagement assay, HDAC1. It counts as cell-based. Conditions: HEK293T/17 cells stably expressing HDAC1-nanoLuc, 2 h. On the technique in general: Bioluminescence resonance energy transfer reports proximity on the nanometre scale.
Data set [9] addresses T3, HDAC6 (Homo sapiens, UniProt Q9UBN7).
T3 construct: HDAC6 2-1215 Open Biosystems; Strep-FLAG-HALO (N); made in house; host or cells: HEK293/T17
T3 sequence (Q9UBN7 2-1215): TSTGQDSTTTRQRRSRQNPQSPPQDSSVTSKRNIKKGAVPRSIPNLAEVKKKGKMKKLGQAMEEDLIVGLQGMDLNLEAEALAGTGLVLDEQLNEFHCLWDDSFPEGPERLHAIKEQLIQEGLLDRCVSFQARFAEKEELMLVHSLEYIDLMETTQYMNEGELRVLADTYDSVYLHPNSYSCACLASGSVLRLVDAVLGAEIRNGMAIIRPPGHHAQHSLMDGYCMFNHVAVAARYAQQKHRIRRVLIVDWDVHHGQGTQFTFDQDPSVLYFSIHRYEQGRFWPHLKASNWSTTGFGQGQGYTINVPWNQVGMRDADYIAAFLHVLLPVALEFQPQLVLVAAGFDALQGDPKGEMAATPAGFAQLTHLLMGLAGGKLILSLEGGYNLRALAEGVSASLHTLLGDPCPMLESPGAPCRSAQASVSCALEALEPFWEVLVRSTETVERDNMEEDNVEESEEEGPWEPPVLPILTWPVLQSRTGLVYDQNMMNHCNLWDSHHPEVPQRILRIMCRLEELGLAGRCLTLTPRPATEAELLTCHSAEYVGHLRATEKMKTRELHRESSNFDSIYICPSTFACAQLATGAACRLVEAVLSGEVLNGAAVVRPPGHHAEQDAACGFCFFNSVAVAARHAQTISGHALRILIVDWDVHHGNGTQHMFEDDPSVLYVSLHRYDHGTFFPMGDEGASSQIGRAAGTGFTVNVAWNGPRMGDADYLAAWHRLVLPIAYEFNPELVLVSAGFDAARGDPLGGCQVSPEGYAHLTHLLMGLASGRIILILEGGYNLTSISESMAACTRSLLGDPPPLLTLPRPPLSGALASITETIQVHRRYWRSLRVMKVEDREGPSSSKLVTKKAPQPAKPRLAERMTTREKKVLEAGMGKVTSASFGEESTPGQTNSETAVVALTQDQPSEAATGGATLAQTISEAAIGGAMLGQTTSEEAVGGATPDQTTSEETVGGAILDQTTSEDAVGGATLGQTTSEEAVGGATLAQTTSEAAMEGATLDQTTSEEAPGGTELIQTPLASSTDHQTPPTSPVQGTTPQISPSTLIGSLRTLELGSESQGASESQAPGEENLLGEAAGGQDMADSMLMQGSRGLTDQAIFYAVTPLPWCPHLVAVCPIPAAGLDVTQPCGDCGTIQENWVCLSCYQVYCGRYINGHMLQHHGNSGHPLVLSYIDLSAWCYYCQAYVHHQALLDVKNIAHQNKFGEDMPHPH
Put plainly: In vitro deacetylation assay, HDAC6 (GAK substrate). Conditions: purified human HDAC6, Ac-GAK-Ac-AMC (GAK) substrate 10 µM. Format: biochemical.

Setting [10] is: Homo sapiens, RPMI-8226, 6 h, read-out: IC50 tubulin deacetylation (relative tubulin acetylation), RPMI-8226 cells, 6 h, Western blot; called EC50 in text.

Like-named read-outs stand apart in the source and are kept apart here.

T2 sequence (Q13547 whole entry): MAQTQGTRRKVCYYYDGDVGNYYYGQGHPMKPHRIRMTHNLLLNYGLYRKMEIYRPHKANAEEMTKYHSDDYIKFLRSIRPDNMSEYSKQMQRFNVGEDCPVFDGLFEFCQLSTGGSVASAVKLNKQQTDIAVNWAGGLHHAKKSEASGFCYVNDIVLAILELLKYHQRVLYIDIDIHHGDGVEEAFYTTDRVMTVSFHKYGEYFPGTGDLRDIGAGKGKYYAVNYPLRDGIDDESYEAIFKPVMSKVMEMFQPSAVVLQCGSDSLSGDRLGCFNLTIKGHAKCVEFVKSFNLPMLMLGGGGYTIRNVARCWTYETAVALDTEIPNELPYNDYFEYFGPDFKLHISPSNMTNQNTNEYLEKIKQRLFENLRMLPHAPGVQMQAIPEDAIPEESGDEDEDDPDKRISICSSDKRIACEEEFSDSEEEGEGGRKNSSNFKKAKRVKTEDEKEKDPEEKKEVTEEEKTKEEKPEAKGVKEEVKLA
HDAC1-nanoLuc, sequence (Q13547 whole entry): as above

By EC50 is commonly meant the concentration at which the effect is half-maximal. On to `O=C(CCCCCCNC(=O)c1cnc(N(c2ccccc2)c2ccccc2)nc1)NO` [ACY-1215, rocilinostat], for which the EC50 at 48 h in data set [1] came to 2890 nM. For the same molecule, the EC50 in data set [2] is 2900 nM. The IC50 in [3] (setting [10]) turned out to be 619 nM; in data set [5], 18.2 nM. For the same molecule, the “effect on histone H3 (K9/K14) acetylation, class I HDAC inhibition” value in data set [4] is “the most potent class I HDAC inhibitors”.
On to `CCCCN(Cc1ccc(C(=O)NO)cc1)C(=O)Nc1ccccc1` [Next A, Nexturastat A], for which the EC50 at 48 h in [1] was determined as 2810 nM. For the same molecule, the EC50 in [2] came to 2800 nM. For the same molecule, in [3] (setting [10]), the IC50 came to 249 nM.
As for `CC(/C=C/C(=O)NO)=C\[C@@H](C)C(=O)c1ccc(N(C)C)cc1` [TSA, Trichostatin A], in data set [1], the EC50 at 48 h stood at 237 nM. Further, the EC50 in [2] was found to be 240 nM. Further, the IC50 in data set [3] (Homo sapiens, RPMI-8226, 6 h, read-out: IC50 tubulin deacetylation (relative tubulin acetylation)) turned out to be 136 nM; in data set [3] (Homo sapiens, RPMI-8226, 6 h, read-out: potency to inhibit tubulin deacetylation), 136 nM; in [3] (read-out: IC50 tubulin deacetylation (relative tubulin acetylation)), 140 nM. Moreover, the “effect on histone H3 (K9/K14) acetylation, class I HDAC inhibition” value in data set [4] is on record as “the most potent class I HDAC inhibitors”.
In the case of `CN1CCc2c(c3ccccc3n2Cc2ccc(C(=O)NO)cc2)C1` [Tub A, Tubastatin A], the EC50 at 48 h in data set [1] is 21600 nM. In addition, the “effect on cell viability” value in data set [2] (MTT) is on record as “less pronounced effects on cell viability at high inhibitor concentrations”. The IC50 in data set [3] (Homo sapiens, RPMI-8226, 6 h; read-out: IC50 tubulin deacetylation (relative tubulin acetylation)) was 985 nM.
As for `O=C(CCCCCCC(=O)Nc1ccc([C@H]2O[C@@H](CSc3nc(-c4ccccc4)c(-c4ccccc4)o3)C[C@@H](c3ccc(CO)cc3)O2)cc1)NO` [Tubacin], the EC50 at 48 h in data set [1] was found to be 6510 nM. For the same molecule, the EC50 in data set [2] was determined as 6500 nM; in [7] (Figure 2C, in vitro data (GAK) in μM) it was 0.1 µM; in data set [8] it was 13200 nM. In addition, the IC50 was 1710 nM in data set [3] (setting [10]); 1700 nM in data set [3] (read-out: IC50 tubulin deacetylation (relative tubulin acetylation); RPMI-8226 cells, 6 h, Western blot; called EC50 in text); 15100 nM in [6]; 102 nM in data set [7].
With `CS(=O)(=O)N(Cc1ccc(C(=O)NO)cn1)c1cccc(Cl)c1` [compound 6, 6-((N-(3-Chlorophenyl)methylsulfonamido)methyl)-N-hydroxynicotinamide], the IC50 in data set [9] came out at 0.35 nM; in data set [6], 281 nM; in data set [7], 49.2 nM; in data set [5] (purified human HDAC10, read-out: IC50 HDAC10), 68.3 nM. Besides, in data set [1], the EC50 at 48 h turned out to be 998 nM. The “SI (HD6/HD1) RHKK” value in data set [6] (ratio of IC50 HDAC1 (RHKK) divided by IC50 HDAC6) was found to be 803. Also, the “SI (HD6/HD1) GAK, in vitro” value in data set [7] (ratio of IC50 HDAC1 (GAK) divided by IC50 HDAC6) is listed as 141. The “SI (HD6/HD10)” value in data set [5] (ratio of IC50 HDAC10 divided by IC50 HDAC6) stood at 195.
